Measured values published in patent publication US20160244453A1, “TREATMENT OF VIRAL AND INFECTIOUS DISEASES USING AN INHIBITOR OF CBP/CATENIN” (PRISM PHARMA CO., LTD., priority 2013, published 2016).

Columns and labels:
Assay type in all cases: cell-based
[1] = system: Sequestome 1/p62 (SQSTM1); experiment: Autophagic flux in macrophages, SQSTM1/p62 immunoblotting; conditions: Compound A 1 and 2 μM, rapamycin 100 nM, immunoblot
Experimental: (§1) For these studies, macrophages were exposed to rapamycin 100 nM (a known inducer of autophagic flux), proteins were extracted and subjected to immunoblotting.
In addition, the inventors looked at another marker of autophagic flux (sequestosome 1, also called SQSTIM1 or p62). During active autophagy, SQSTIM1 is degraded (decreased).

[2] = system: LC3B; experiment: Autophagy induction in macrophages, LC3B immunoblotting
Excerpt: Microtubule-associated protein 1A/1B-light chain 3 (LC3) is a soluble protein that is distributed ubiquitously in mammalian tissues and cultured cells (reviewed in Methods Mol. Biol. 445, 77-88 (2008). During autophagy, autophagosomes engulf cytoplasmic components, including cytosolic proteins and organelles. Concomitantly, a cytosolic form of LC3 (LC3-I) is conjugated to phosphatidylethanolamine to form LC3-phosphatidylethanolamine conjugate (LC3-II), which is recruited to autophagosomal membranes. Autophagosomes fuse with lysosomes to form autolysosomes, and intra-autophagosomal components are degraded by lysosomal hydrolases. At the same time, LC3-II in autolysosomal lumen is degraded. Thus, lysosomal turnover of the autophagosomal marker LC3-II reflects starvation-induced autophagic activity, and detecting LC3 by immunoblotting or immunofluorescence is an indicator of autophagy and autophagy-related processes, including autophagic cell death.
as §1
During autophagy, LC3B (LC3B-I) forms LC3B-phosphatidylethanolamine conjugate (LC3B-II), which is recruited to autophagosomal membranes. When there is autophagic flux there is lipidation of LC3B-I that results in conversion of LC3B-II. Thus, during autophagic flux the relative quantity of LC3B-II is increased compared to LC3B-I.

[3] = system: CD4 Tscm; experiment: In vitro culture assay of sorted CD4 Tscm, phenotype by flow cytometry; conditions: 10 d incubation with rhIL-15; compared to control experiments
Experimental: (§2) PBMC were stained with monoclonal antibodies directed against CD4, CD3, CD45RA, CCR7, CD62L, CD122, CD95, according to standard protocols. After 20 minutes, CCR7+ CD45RA+ naïve CD4 T cells, CCR7+ CD45RA− central-memory CD4 T cells (CD4 Tcm), CCR7− CD45RA− CD4 T cells, CCR7− CD45RA+ terminally-differentiated CD4 T cells (CD4 Ttd) and CCR7+ CD45RA+ CD62L+ CD95+ CD122+ T memory stem cell CD4 T cells (CD4 Tscm) were live sorted in a specifically designated biosafety cabinet (Baker Hood), using a FACS Aria cell sorter (BD Biosciences) at 70 pounds per square inch. For phenotypic characterization, cells were additionally stained with CCR5 or CXCR4 antibodies, or Annexin V, and acquired on a LSRII flow cytometer (BD Biosciences). Data were analyzed using FlowJo software (Treestar).
(§3) Selected CD4 T cell subsets were isolated by cell sorting, labeled cells with 2 μM CFSE for 7 min at 37° C., and incubated with rhIL-15 (25 ng/ml; Peprotech) for 10 d in the presence or absence of Compound C, (6S,9S,9aS)-N-benzyl-6-(4-hydroxybenzyl)-2,9-dimethyl-4,7-dioxo-8-(quinolin-8-ylmethyl)octahydro-1H-pyrazino[2,1-c][1,2,4]triazine-1-carboxamide (Prism Biolabs). Afterwards, cells were harvested and phenotypically characterized by flow cytometry. […]

[4] = system: HIV; experiment: HIV replication in macrophages, HIV p24 antigen released into culture supernatants; conditions: macrophages pretreated 24 hours; infection monitored 10 days; concentrations 100 pM to 2 μM
Experimental: For these experiments, peripheral blood mononuclear cells (PBMCs) were isolated from HIV seronegative donors and differentiated into macrophages for 7-10 days using methods previously described (J Biol Chem 286: 18890-18902 (2011); PLoS Pathogens 8(5):e1002689 pp 1-13 (2012); PLoS Pathogens 8(11):e1003017 (2012)). The macrophages were pretreated for 24 hours with Compound C, which is the β-catenin inhibitor (6S,9S,9aS)-N-benzyl-6-(4-hydroxybenzyl)-2,9-dimethyl-4,7-dioxo-8-(quinolin-8-ylmethyl)octahydro-1H-pyrazino[2,1-c][1,2,4]triazine-1-carboxamide. Macrophages were treated with Compound C at increasing concentrations and productive infection was monitored for 10 days by detection of HIV p24 antigen released into the culture supernatants.

[5] = system: CD4 Tcm; experiment: In vitro culture assay of sorted CD4 Tcm, phenotype by flow cytometry; conditions: 10 d incubation with rhIL-15; compared to control experiments
Experimental: as §2, §3

| SMILES | SQSTM1 (p62) levels relative to negative control [1] | induction of autophagy ([2]; 1 and 2 μM) | levels of LC3B II and LC3B I relative to negative control ([2]; Compound A 2 μM, rapamycin 100 nM, immunoblot) | amount of LC3B II and LC3B I relative to negative control ([2]; Compound A 1 and 2 μM, rapamycin 100 nM, immunoblot) | differentiation of Tscm into more mature CCR7− CD62L− CD4 T cell populations [3] | HIV replication (HIV p24 antigen) [4] | differentiation of Tcm into more mature CCR7− CD62L− CD4 T cell populations [5] |
| --- | --- | --- | --- | --- | --- | --- | --- |
| C[C@H]1[C@H]2N(C(=O)CN(C)N2C(=O)NCc2ccccc2)[C@@H](Cc2ccc(OP(=O)(O)O)cc2)C(=O)N1Cc1cccc2cccnc12 [Compound A, 4-(((6S,9S,9aS)-1-(benzylcarbamoyl)-2,9-dimethyl-4,7-dioxo-8-(quinolin-8-ylmethyl)octahydro-1H-pyrazino[2,1-c][1,2,4]triazin-6-yl)methyl)phenyl dihydrogen phosphate] | reduced | induces autophagy | greatly reduced | increased amount of LC3B II and decreased amount of LC3B I | – | – | – |
| C[C@H]1[C@H]2N(C(=O)CN(C)N2C(=O)NCc2ccccc2)[C@@H](Cc2ccc(O)cc2)C(=O)N1Cc1cccc2cccnc12 [Compound C, (6S,9S,9aS)-N-benzyl-6-(4-hydroxybenzyl)-2,9-dimethyl-4,7-dioxo-8-(quinolin-8-ylmethyl)octahydro-1H-pyrazino[2,1-c][1,2,4]triazine-1-carboxamide] | – | – | – | – | substantially facilitated differentiation | inhibits HIV in a dose dependent manner | to a lesser extent |
